From patent US6451820B1, “Substituted 1-(4-aminophenly)triazoles and their use as anti-inflammatory agents” (Boehringer Ingelheim Pharmaceuticals, Inc., priority 2000, dated 2002)
Read-outs that look alike come from different tables or passages of the source.

System: IL-2 promoter/enhancer
Experiment: IL-2 promoter assay (luciferase reporter in J.1F/C6 Jurkat cells)
Format: cell-based
Conditions: Homo sapiens
Excerpt: The IL-2 promoter assay measures transcriptional activation of a luciferase reporter gene which has been placed under control of the IL-2 promoter/enhancer. All the known regulatory features of the IL-2 gene are contained within a ˜300 bp sequence immediately upstream of the open reading frame. The region −328 to +35 relative to the transcription start site of the IL-2 gene is obtained by […] of human genomic DNA and is subcloned into the promoterless luciferase reporter vector pGL2-Basic (Promega). The resulting construct, pIL2P-luc, and a vector containing a neomycin resistance gene, pcDNA/Neo (Invitrogen), are linearized and stably transfected into Jurkat cells (a human T cell line) by electroporation.
For screening compounds, the cells are pelleted by centrifugation, washed once with PBS, resuspended in RPMI (phenol red-free) containing 5% FBS, and dispensed into 96-well, white microtiter plates (Packard) at 50,000 cells/well. The cells are pre-incubated with compounds (1 μg/ml) for 15 min prior to addition of ionomycin (1 μg/ml) and PMA (10 ng/ml) in a final volume of 100 μl. Following a 5 hr incubation at 37° C. in a humidified incubator, 100 μl of Luc-Lite lysis buffer/luciferase assay buffer (Promega) is added and luminescence measured using a Packard TopCount scintillation counter/luminometer.

[1] = J.1F/C6 Jurkat cells stimulated with ionomycin and PMA, luciferase reporter, read-out: IC50

CSc1nc(-c2ccncc2)nn1-c1ccc(NCc2sccc2C)cc1 [Example 2, (3-Methylthien-2-ylmethyl)-[4-(5-methylthio-3-pyridin-4-yl-1H-1,2,4-triazol-1-yl)phenyl]amine]
IC50 [1]: < 10 µM

C=CC[C@@H]1/C=C(\C)C[C@H](C)C[C@H](OC)[C@H]2O[C@@](O)(C(=O)C(=O)N3CCCC[C@H]3C(=O)O[C@H](/C(C)=C/[C@@H]3CC[C@@H](O)[C@H](OC)C3)[C@H](C)[C@@H](O)CC1=O)[C@H](C)C[C@@H]2OC [FK506, reference compound]
IC50 (J.1F/C6 Jurkat cells treated with ionomycin and PMA, cell line validation, read-out: IC50, inhibition of luciferase activity): 0.0003 µM

CSc1nc(-c2ccncc2)nn1-c1ccc(NC(=O)c2cccnc2)cc1 [Example 1]
IC50 [1]: < 10 µM
